Data on four compounds can be found in PMC10709440, “High-throughput ligand profile characterization in novel cell lines expressing seven heterologous insect olfactory receptors for the detection of volatile plant biomarkers” (Scientific Reports, 2023).

Assay [1] has as its target T1, Drosophila OR13a (Drosophila melanogaster, UniProt Q9VXL0).
T1 construct: expressed in transfected cells
T1 sequence (Q9VXL0 1-418): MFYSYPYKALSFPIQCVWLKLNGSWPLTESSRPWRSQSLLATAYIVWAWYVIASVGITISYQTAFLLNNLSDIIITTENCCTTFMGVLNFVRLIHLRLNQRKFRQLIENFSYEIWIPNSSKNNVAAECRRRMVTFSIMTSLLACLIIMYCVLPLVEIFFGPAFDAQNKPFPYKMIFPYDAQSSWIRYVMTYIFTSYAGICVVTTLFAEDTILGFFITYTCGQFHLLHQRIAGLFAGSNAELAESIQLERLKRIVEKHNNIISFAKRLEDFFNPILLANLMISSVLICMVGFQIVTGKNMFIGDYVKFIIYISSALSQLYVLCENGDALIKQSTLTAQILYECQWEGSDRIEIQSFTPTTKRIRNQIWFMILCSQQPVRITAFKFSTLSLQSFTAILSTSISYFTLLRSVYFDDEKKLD
T1 sequence (Q9VNB5 1-486 partner): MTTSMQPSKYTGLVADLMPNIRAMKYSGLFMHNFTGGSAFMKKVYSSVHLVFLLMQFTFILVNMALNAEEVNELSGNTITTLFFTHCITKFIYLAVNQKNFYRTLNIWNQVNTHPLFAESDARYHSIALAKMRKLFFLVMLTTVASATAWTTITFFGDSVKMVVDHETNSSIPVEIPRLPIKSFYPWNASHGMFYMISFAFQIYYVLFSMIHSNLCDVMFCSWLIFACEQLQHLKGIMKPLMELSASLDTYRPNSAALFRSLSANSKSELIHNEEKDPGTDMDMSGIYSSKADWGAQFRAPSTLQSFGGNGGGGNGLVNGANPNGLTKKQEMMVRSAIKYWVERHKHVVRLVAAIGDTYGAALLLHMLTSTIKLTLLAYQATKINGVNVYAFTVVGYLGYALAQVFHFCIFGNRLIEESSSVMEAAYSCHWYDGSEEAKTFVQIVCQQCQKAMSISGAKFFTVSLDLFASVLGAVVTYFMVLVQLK
As to the kind of experiment: Calcium ion fluorescence (GCaMP6) assay, OR13a stable HEK293 cell line. Conditions: for OR13a response (VUAA1-normalized) at 1 μM / OR13a response (VUAA1-normalized) at 10 μM / OR13a response (VUAA1-normalized) at 100 μM: OR13a cell line; for OR13a response (VUAA1-normalized) at 1 μM: VOC concentration 1 μM; for OR13a response (VUAA1-normalized) at 10 μM: VOC concentration 10 μM; for OR13a response (VUAA1-normalized) at 100 μM: VOC concentration 100 μM. The format is cell-based. The protocol:
(§1) These VUAA1 normalized ∆F values were used to compare the different receptors and ligands.
(§2) The concentration-dependent effect of the reference ligands on their cognate cell lines was examined in more detail. Twelve different ligand concentrations were measured on each cell line in an overall 0.01 μM to 100 μM concentration range with 5 repetitions with three technical replicates each time.
(§3) Twelve thousand to 18,000 cells were plated into each well of a black wall, transparent bottom 384-well microplate (Greiner) 48 h or 72 h before the measurements and were simultaneously treated with 1 μg/mL doxycycline. […] The plate has 24 columns, thus we could record responses in up to eight different cell lines in each plate. On the day of the experiment, the growth medium was replaced with 20 µL assay buffer/well (140 mM NaCl, 5 mM KCl, 2 mM CaCl2, 1 mM MgCl2, 5 mM HEPES-Na, 20 mM glucose, pH 7.3, 340 mOsm). […] Baseline fluorescence (F0) was recorded for 5 s, after which 7 µL VOC buffer (140 mM NaCl, 5 mM KCl, 2 mM CaCl2, 1 mM MgCl2, 5 mM HEPES-Na, 31 mM glucose, 0.1% DMSO, pH 7.3, 340 mOsm) was injected into each well in one row and the fluorescence response was recorded for an additional 30 s, at a rate of one read/sec. VOC solutions (VOC buffer with 4× concentration of the final measured VOC concentration, 9 µL/well was injected) were measured on the same wells in a second round with the same protocol. Each individual concentration of a specific VOC sample was recorded in three wells for the same cell line on the same microplate. The raw data were exported in xls file format, F0 and FMAX values, and the fluorescence intensity changes (∆F) were calculated in Excel (Microsoft) (Supplementary file Data summary.xlsx) using the following equation: ΔF=FMAX-F0/F0 (see also Fig. 1C). On each plate, we recorded the response of each cell line to 50 µM VUAA1. The average of these ∆F values of each cell line were used to calculate the VUAA1-normalized values for the rest of the plate, by dividing VOC response ∆F values by the average VUAA1 response ∆F value of the corresponding OR cell line. Each VOC-OR combination was measured three times as technical replicates. […] The average of these replicates were used as one ∆F and VUAA1-normalized ∆F in the following analysis.
(§4) In the next rows we tested the reference VOCs (or other VOCs known to activate the corresponding cell lines), in order to test if all cell lines are responsive. The remaining rows were used to test VOCs with unknown effect.
(§5) The recorded FMAX, F0, ∆F, VUAA1-normalized ∆F values, as well as the OR name, the name of the tested sample, and the final concentration for each well were copied into supplementary file Data summary.xlsx, that was used to summarize all the plates recorded. Here, the averages of the measurements were calculated for each receptor-VOC-concentration combination.

Assay [2] addresses T2, Drosophila OR49b (Drosophila melanogaster, UniProt Q9V6H2).
T2 construct: expressed in transfected cells
T2 sequence (Q9V6H2 1-375): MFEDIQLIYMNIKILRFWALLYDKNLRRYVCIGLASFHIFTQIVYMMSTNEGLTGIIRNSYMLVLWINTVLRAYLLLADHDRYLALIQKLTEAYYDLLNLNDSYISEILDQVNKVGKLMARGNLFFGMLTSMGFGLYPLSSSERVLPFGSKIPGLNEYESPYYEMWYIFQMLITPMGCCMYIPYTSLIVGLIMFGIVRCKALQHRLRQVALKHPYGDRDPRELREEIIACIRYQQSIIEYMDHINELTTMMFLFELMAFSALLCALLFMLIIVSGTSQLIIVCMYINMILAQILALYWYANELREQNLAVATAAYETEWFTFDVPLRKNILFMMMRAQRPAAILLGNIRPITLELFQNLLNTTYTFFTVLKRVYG
T2 sequence (Q9VNB5 1-486 partner): T1 sequence (Q9VNB5 1-486 partner)
As to the kind of experiment: cell-based. Conditions: for activation at 1 µM / activation at 10 µM / activation at 100 µM: HEK293; for OR49b response (VUAA1-normalized) at 1 μM / OR49b response (VUAA1-normalized) at 10 μM / OR49b response (VUAA1-normalized) at 100 μM / Average response: OR49b cell line; for Average response: mean of biological replicates. The method, then:
as §1, §2, §3, §4, §5

[3] abbreviates: HEK293, read-out: OR13a Average response (VUAA1-normalized), 1 μM VOC, 50 μM VUAA1 = 1, responses not exceeding 0.05 considered 0.
Setting [4] is: HEK293, read-out: OR13a Average response (VUAA1-normalized), 10 μM VOC, 50 μM VUAA1 = 1, responses not exceeding 0.05 considered 0.
[5] abbreviates: HEK293, read-out: OR13a Average response (VUAA1-normalized), 100 μM VOC, 50 μM VUAA1 = 1, responses not exceeding 0.05 considered 0.
Setting [6] is: ligand concentration 1 (unit not given), threshold 0.05, below shown as 0.
Setting [7] is: ligand concentration 10 (unit not given), threshold 0.05, below shown as 0.
[8] abbreviates: ligand concentration 100 (unit not given), threshold 0.05, below shown as 0.
[9] abbreviates: HEK293, read-out: OR13a response (VUAA1-normalized response), VOC concentration 1 μM.
Setting [10] is: HEK293, read-out: OR13a response (VUAA1-normalized response), VOC concentration 10 μM.
Setting [11] is: HEK293, read-out: OR13a response (VUAA1-normalized response), VOC concentration 100 μM.
Where [12] appears, read: VOC concentration 1 μM, read-out: OR49b response (VUAA1-normalized response).
Setting [13] is: VOC concentration 10 μM, read-out: OR49b response (VUAA1-normalized response).
[14] abbreviates: VOC concentration 100 μM, read-out: OR49b response (VUAA1-normalized response).

The structures appear in SMILES notation. Where two headings read alike, the source gives them in different places.

Turning to `Cc1ccccc1C` [o-xylene], the activation at 1 µM in assay [1] (setting [3]) is 0%; in assay [2] (1 μM VOC, 50 μM VUAA1 = 1, read-out: OR49b Average response (VUAA1-normalized)), 0%. The activation at 10 µM was 0% in assay [1] (setting [4]) and 9% in assay [2] (10 μM VOC, 50 μM VUAA1 = 1, read-out: OR49b Average response (VUAA1-normalized)). Also, the activation at 100 µM in assay [1] (setting [5]) is 1.83%; in assay [2] (100 μM VOC, 50 μM VUAA1 = 1, read-out: OR49b Average response (VUAA1-normalized)), 64%. Moreover, in assay [1], the “OR13a response (VUAA1-normalized) at 1 μM” value came out at 0.00. Moreover, the “OR13a response (VUAA1-normalized) at 10 μM” value in assay [1] turned out to be 0.00. In addition, the “OR13a response (VUAA1-normalized) at 100 μM” value in assay [1] is listed as 0.00. Moreover, the “DF norm AVERAGE OR13a” value in assay [1] (setting [6]), in assay [1] (setting [7]) and in assay [1] (setting [8]) was 0 throughout. For the same compound, the “OR49b response (VUAA1-normalized) at 1 μM” value in assay [2] (VOC concentration 1 μM) was determined as 0.00. For the same compound, in assay [2] (VOC concentration 10 μM), the “OR49b response (VUAA1-normalized) at 10 μM” value came to 0.09. In assay [2] (VOC concentration 100 μM), the “OR49b response (VUAA1-normalized) at 100 μM” value was 0.64. In addition, the results for the Average response in assay [2] (odorant cc. 1 µM), in assay [2] (odorant cc. 10 µM) and in assay [2] (odorant cc. 100 µM) were 0.00, 0.09 and 0.64, respectively. In addition, the entries for the “DF norm AVERAGE OR49b” value in assay [2] (setting [6]), in assay [2] (setting [7]) and in assay [2] (setting [8]) were 0, 0.08728 and 0.6438, respectively.
Turning to `C=C1CCC2(C(C)C)CC12` (stereo not shown) [sabinene], the activation at 1 µM in assay [1] (setting [3]) was 0%. In addition, in assay [1] (setting [4]), the activation at 10 µM amounted to 0%. Moreover, the activation at 100 µM in assay [1] (setting [5]) was found to be 0%. Also, the “OR13a response (VUAA1-normalized) at 1 μM” value in assay [1] is given as 0.00. In assay [1], the “OR13a response (VUAA1-normalized) at 10 μM” value was determined as 0.00. Moreover, in assay [1], the “OR13a response (VUAA1-normalized) at 100 μM” value is 0.00. Also, the “DF norm AVERAGE OR13a” value in assay [1] (setting [6]), in assay [1] (setting [7]) and in assay [1] (setting [8]) was 0 in each case. For the same compound, the “OR49b response (VUAA1-normalized) at 1 μM” value in assay [2] (VOC concentration 1 μM) came out at 0.00. The “OR49b response (VUAA1-normalized) at 10 μM” value in assay [2] (VOC concentration 10 μM) is 0.00. The “OR49b response (VUAA1-normalized) at 100 μM” value in assay [2] (VOC concentration 100 μM) was 0.00. In addition, the Average response in assay [2] (odorant cc. 1 µM) is given as 0.00; in assay [2] (odorant cc. 10 µM), 0.00; in assay [2] (odorant cc. 100 µM), 0.0368. Moreover, the “DF norm AVERAGE OR49b” value in assay [2] (setting [6]), in assay [2] (setting [7]) and in assay [2] (setting [8]) was 0 throughout.
Regarding `C=C1CC/C=C(\C)CC[C@@H]2[C@@H]1CC2(C)C` [(-)-trans-caryophyllene], the activation at 1 µM in assay [1] (setting [3]), in assay [1] (setting [9]) and in assay [2] (setting [12]) was 0% in each case. In addition, the values for the activation at 10 µM in assay [1] (setting [4]), in assay [1] (setting [10]) and in assay [2] (setting [13]) were 11%, 11% and 0%, respectively. The activation at 100 µM in assay [1] (setting [5]) worked out at 10%; in assay [1] (setting [11]), 10%; in assay [2] (setting [14]), 0%. Also, the “DF norm AVERAGE OR13a” value was 0 in assay [1] (concentration 1, normalized fluorescence change, values below 0.05 threshold given as 0); 0.1145 in assay [1] (concentration 10, normalized fluorescence change, values below 0.05 threshold given as 0); 0.105 in assay [1] (concentration 100, normalized fluorescence change, values below 0.05 threshold given as 0). In addition, the “DF norm AVERAGE OR49b” value in assay [2] is on record as 0. The Average response in assay [2] (odorant cc. 1 µM), in assay [2] (odorant cc. 10 µM) and in assay [2] (odorant cc. 100 µM) was 0.00 in each case.
For the compound `C=C1CCC2CC1C2(C)C` (stereo not drawn) [beta-pinene], the figures for the activation at 1 µM in assay [1] (setting [3]), in assay [1] (setting [9]) and in assay [2] (setting [12]) were 8%, 8% and 6.58%, respectively. Also, the results for the activation at 10 µM in assay [1] (setting [4]), in assay [1] (setting [10]) and in assay [2] (setting [13]) were 0%, 0% and 5%, respectively. Also, the activation at 100 µM came to 3.25% in assay [1] (setting [5]), 0% in assay [1] (setting [11]) and 0% in assay [2] (setting [14]). Further, the “DF norm AVERAGE OR13a” value in assay [1] (setting [6]) turned out to be 0.08064; in assay [1] (setting [7]), 0; in assay [1] (setting [8]) it was 0. The Average response in assay [2] (odorant cc. 1 µM) is listed as 0.0658; in assay [2] (odorant cc. 10 µM), 0.05; in assay [2] (odorant cc. 100 µM) it was 0.00. Also, the “DF norm AVERAGE OR49b” value in assay [2] (setting [6]) stood at 0.06581; in assay [2] (setting [7]), 0.05055; in assay [2] (setting [8]), 0.
